The source of these data is patent US9221814B2, “Heterocyclic guanidine F1F0-atpase inhibitors and therapeutic uses thereof” (Lycera Corporation, priority 2012, dated 2015).

Read-outs that look alike come from different tables or passages of the source.

One assay has as its target T1, F1F0-ATPase (Bos taurus, UniProt P13621).
T1 construct: from tissue
In words: Inhibition of F1F0-ATPase activity in synthesizing ATP (ATP synthesis inhibition). The class given is biochemical. The note with it: detection limit IC50=16 μM, read-out: ATP Syn IC50. The method, then: (§1) Exemplary compounds described in above Examples were tested for activity against F1F0-ATPase by measuring the ability of the compounds to inhibit ATP synthesis. In addition, the compounds were assessed for cytotoxicity in Ramos cells. Inhibition of F1F0-ATPase activity in synthesizing ATP and cytotoxicity in Ramos cells were measured according to the procedures described in K. M. Johnson et al. Chemistry & Biology 2005, 12, 485-496.

For a further assay, the system named is Ramos cells. The experiment in a line: Cytotoxicity in Ramos cells. The class given is cell-based. The note with it: detection limit EC50=16 μM, read-out: Ramos Cell EC50. The method, then: as §1

A word on the IC50: it is the point on the concentration scale where inhibition reaches its midpoint. The EC50 is the concentration that produces a half-maximal response. As for `Cc1cc(C(=O)/N=C(\Nc2cc(-c3ccc(F)cc3)n[nH]2)NC(C)C)c(C(F)(F)F)o1` [Compound A-195], the IC50 on F1F0-ATPase was less than 5 µM. Further, the EC50 in the assay on Ramos cells fell in the range of 5 to 16 µM.

`CCC(C)N/C(=N/C(=O)c1nc(C)oc1C)Nc1cc(-c2ccc(F)cc2)n[nH]1` (centres unmarked) [Compound A-196]: the IC50 at F1F0-ATPase is 5 to 16 µM. Besides, in the assay with Ramos cells, the EC50 was less than 5 µM.

For the compound `CCC(C)N/C(=N/C(=O)c1cc(C)oc1C)Nc1cc(-c2ccc(F)cc2)n[nH]1` (centres unmarked) [Compound A-197], the IC50 at F1F0-ATPase lay within 5 to 16 µM. Further, the EC50 in the assay with Ramos cells fell in the range of 5 to 16 µM.

As for `O=C(/N=C(/NCc1ccc(F)cc1Cl)Nc1cc(C(F)(F)F)n[nH]1)c1nccs1` [Compound A-198], on F1F0-ATPase, the IC50 was less than 5 µM. For the same compound, the EC50 in the assay with Ramos cells was less than 5 µM.

In the case of `CCOCCCNC(=NC(=O)c1cc(C)oc1C(F)(F)F)Nc1cc(-c2ccc(F)cc2)n[nH]1` [Compound A-199], the IC50 at F1F0-ATPase was less than 5 µM. In the assay with Ramos cells (Homo sapiens), the EC50 is less than 5 µM.

For `CCOCCCN/C(=N/C(=O)c1cc(C)oc1C(F)(F)F)Nc1cc(-c2cc(F)cc(F)c2)n[nH]1` [Compound A-200], on F1F0-ATPase, the IC50 was less than 5 µM. Moreover, the EC50 in the assay with Ramos cells is 5 to 16 µM.

`CC(C)CN/C(=N/C(=O)c1cn(C)nc1C(F)(F)F)Nc1n[nH]c2cc(Cl)ccc12` [Compound A-201]: the half-maximal inhibitory concentration (IC50) on F1F0-ATPase was less than 5 µM. For the same compound, in the assay on Ramos cells, the EC50 is more than 16 µM.

With `COCC(C)NC(=NC(=O)c1cn(C)nc1C(F)(F)F)Nc1n[nH]c2cc(Cl)ccc12` (centres unmarked) [Compound A-202], the IC50 at F1F0-ATPase is less than 5 µM. Moreover, in the assay on Ramos cells, the EC50 was less than 5 µM.

In the case of `Cc1cc(C(=O)/N=C(/NCC(C)C)Nc2cc(-c3ccc(F)cc3)n[nH]2)c(C(F)(F)F)o1` [Compound A-203], the IC50 at F1F0-ATPase was less than 5 µM. Also, in the assay on Ramos cells, the EC50 is less than 5 µM.

In the case of `CCC(C)N/C(=N/C(=O)c1cc(C)oc1C(F)(F)F)Nc1cc(-c2ccc(F)cc2)n[nH]1` (centres unmarked) [Compound A-204], the IC50 on F1F0-ATPase is less than 5 µM. In the assay with Ramos cells, the EC50 is less than 5 µM.

In the case of `CC(C)CN/C(=N/C(=O)c1cn(C)nc1C(F)(F)F)Nc1n[nH]c2cc(F)ccc12` [Compound A-205], the IC50 on F1F0-ATPase was more than 16 µM. Moreover, in the assay on Ramos cells, the EC50 is more than 16 µM.

`Cn1cc(C(=O)/N=C(\Nc2n[nH]c3cc(F)ccc23)NC(C)(C)C)c(C(F)(F)F)n1` [Compound A-206]: the IC50 on F1F0-ATPase fell in the range of 5 to 16 µM. Also, in the assay with Ramos cells, the EC50 was less than 5 µM.

On to `COCC(C)NC(=NC(=O)c1cn(C)nc1C(F)(F)F)Nc1n[nH]c2cc(F)ccc12` (centres unmarked) [Compound A-207], for which the IC50 on F1F0-ATPase is more than 16 µM. For the same compound, the EC50 in the assay on Ramos cells was more than 16 µM.

Turning to `CC(C)(C)CN/C(=N/C(=O)c1ccc(Cl)s1)Nc1cc(C(F)(F)F)n[nH]1` [Compound A-208], the IC50 at F1F0-ATPase is less than 5 µM. For the same compound, the EC50 in the assay with Ramos cells was less than 5 µM.

Turning to `O=C(/N=C(\Nc1cc(C(F)(F)F)n[nH]1)NC1CCOCC1)c1ccc(Cl)s1` [Compound A-209], the IC50 at F1F0-ATPase was less than 5 µM. For the same compound, the EC50 in the assay on Ramos cells was less than 5 µM.

Take `O=C(/N=C(/Nc1cc(F)cc(Cl)c1)Nc1cc(C(F)(F)F)n[nH]1)c1ccc(Cl)s1` [Compound A-210]: the IC50 at F1F0-ATPase is less than 5 µM. Moreover, in the assay on Ramos cells, the EC50 was less than 5 µM.

As to `CC(C)(C)N/C(=N/C(=O)c1ccc(Cl)s1)Nc1cc(C(F)(F)F)n[nH]1` [Compound A-211], the IC50 at F1F0-ATPase was less than 5 µM. Further, the EC50 in the assay on Ramos cells was less than 5 µM.

Consider `CCOC(=O)NC1CCC(N/C(=N\C(=O)c2cc(C)oc2C(F)(F)F)Nc2cc(OC)ccc2C)CC1` (centres unmarked) [Compound A-212], for which the IC50 on F1F0-ATPase is less than 5 µM. Further, the EC50 in the assay on Ramos cells (Homo sapiens) was in the range of 5 to 16 µM.

In the case of `CCOC(=O)NC1CCC(N/C(=N\C(=O)c2cc(C)oc2C(F)(F)F)Nc2ccccc2OC)CC1` (centres unmarked) [Compound A-213], on F1F0-ATPase, the IC50 is less than 5 µM. The EC50 in the assay with Ramos cells (Homo sapiens) was more than 16 µM.

`CCOC(=O)NC1CCC(N/C(=N\C(=O)c2cc(C)oc2C(F)(F)F)Nc2ccccc2C(F)(F)F)CC1` (centres unmarked) [Compound A-214]: at F1F0-ATPase, the IC50 is less than 5 µM. Further, the EC50 in the assay on Ramos cells (Homo sapiens) was more than 16 µM.

As for `CCOC(=O)NC1CCC(N/C(=N\C(=O)c2cc(C)oc2C(F)(F)F)Nc2cc(Cl)ccc2OC)CC1` (centres unmarked) [Compound A-215], the IC50 at F1F0-ATPase was less than 5 µM. Besides, the concentration giving a half-maximal response (EC50) in the assay on Ramos cells (Homo sapiens) was 5 to 16 µM.

For the compound `CCOC(=O)NC1CCC(N/C(=N\C(=O)c2cc(C)oc2C(F)(F)F)Nc2ccccc2C)CC1` (centres unmarked) [Compound A-216], the IC50 at F1F0-ATPase is less than 5 µM. For the same compound, in the assay on Ramos cells (Homo sapiens), the EC50 fell in the range of 5 to 16 µM.

On to `CCOC(=O)NC1CCC(N/C(=N/C(=O)c2cn(C)nc2C(F)(F)F)Nc2cc(F)cc(F)c2)CC1` (centres unmarked) [Compound A-217], for which the IC50 at F1F0-ATPase is more than 16 µM. Also, in the assay with Ramos cells (Homo sapiens), the EC50 is more than 16 µM.

For `CCOC(=O)NC1CCC(N/C(=N/C(=O)c2cn(C)nc2C(F)(F)F)NCc2ccc(Cl)c(F)c2)CC1` (centres unmarked) [Compound A-218], the half-inhibitory concentration (IC50) at F1F0-ATPase was more than 16 µM. In the assay on Ramos cells (Homo sapiens), the EC50 lay within 5 to 16 µM.

With `CCOC(=O)NC1CCC(N/C(=N/C(=O)c2cn(C)nc2C(F)(F)F)Nc2cc(F)cc(Cl)c2)CC1` (centres unmarked) [Compound A-219], the IC50 on F1F0-ATPase fell in the range of 5 to 16 µM. In addition, in the assay on Ramos cells (Homo sapiens), the EC50 fell in the range of 5 to 16 µM.

For the compound `Cc1cc(C(=O)/N=C(/Nc2cc(F)cc(Cl)c2)Nc2cc(C(F)(F)F)nn2C(C)C)on1` [Compound A-225], the IC50 at F1F0-ATPase is less than 5 µM. Besides, the EC50 in the assay with Ramos cells (Homo sapiens) is less than 5 µM.

For the compound `Cc1cc(C(=O)/N=C(/Nc2cc(F)cc(Cl)c2)Nc2c(C)c(C(F)(F)F)nn2CCO)on1` [Compound A-226], at F1F0-ATPase, the IC50 was less than 5 µM. Further, in the assay with Ramos cells (Homo sapiens), the concentration giving a half-maximal response (EC50) lay in the range of 5 to 16 µM.

For `Cc1cc(C(=O)/N=C(/Nc2cc(F)cc(Cl)c2)Nc2cc(C(F)(F)F)nn2C)on1` [Compound A-228], the IC50 on F1F0-ATPase was less than 5 µM. Moreover, the EC50 with Ramos cells (Homo sapiens) is less than 5 µM.

With `Cc1cc(C(=O)/N=C(\Nc2ccc(C(F)(F)F)nc2)Nc2cccc(Cl)c2)n(C)n1` [Compound A-230], on F1F0-ATPase, the IC50 is less than 5 µM. Further, the concentration giving a half-maximal response (EC50) in the assay on Ramos cells (Homo sapiens) is less than 5 µM.

For the compound `Cc1cc(C(=O)/N=C(\Nc2ccc(C(F)(F)F)nc2)Nc2cc(F)cc(Cl)c2)on1` [Compound A-231], at F1F0-ATPase, the IC50 was less than 5 µM. Moreover, the EC50 in the assay on Ramos cells (Homo sapiens) was less than 5 µM.

For `Cc1cc(C(=O)/N=C(\Nc2ccc(C(F)(F)F)nc2)Nc2cccc(Cl)c2)on1` [Compound A-232], the IC50 on F1F0-ATPase was less than 5 µM. For the same compound, the half-maximal effective concentration (EC50) in the assay with Ramos cells (Homo sapiens) was less than 5 µM.

Turning to `Cc1cc(C(=O)/N=C(\Nc2ccc(C(F)(F)F)nc2)Nc2cccc(C(F)(F)F)c2)on1` [Compound A-233], on F1F0-ATPase, the IC50 was less than 5 µM. Also, the EC50 in the assay on Ramos cells (Homo sapiens) is less than 5 µM.

Consider `Cn1cc(C(=O)/N=C(/Nc2cc(F)cc(Cl)c2)Nc2cccc(O)n2)c(C(F)(F)F)n1` [Compound A-234], for which the IC50 at F1F0-ATPase is less than 5 µM. Also, the EC50 in the assay with Ramos cells (Homo sapiens) is less than 5 µM.

In the case of `Cn1nc(C(C)(C)C)cc1C(=O)N/C(=N/c1cccc(O)n1)Nc1cc(F)cc(Cl)c1` [Compound A-235], the IC50 at F1F0-ATPase is less than 5 µM. Also, the EC50 in the assay with Ramos cells (Homo sapiens) is less than 5 µM.
